Patent US20230286925A1, “PHENYL TRIAZOLE MLL1-WDR5 PROTEIN-PROTEIN INTERACTION INHIBITOR” (HUYABIO International, LLC, priority 2022, published 2023)
Like-named read-outs stand apart in the source and are kept apart here.

Key:
[1] = biological target: MLL1-WDR5 protein-protein interaction (Homo sapiens (Human), UniProt P61964); experiment: WDR5 TR-FRET assay of inhibition against MLL1-WDR5 protein-protein interaction; format: binding
Procedure: WDR5 TR-FRET Assay Procedure: Stock compounds were transferred to the assay plate by Echo Liquid Handler. Reactions were performed in the assay buffer (1×PBS, 300 mM NaCl, 0.5 mM TCEP, 0.1% CHAPS) containing 5 nM WDR5 protein, 10 nM peptide (Ac-ARTEVHLRKS-[Ahx-Ahx] [C]-Alexa Fluor 488-NH2) and 0.25 nM Tb-anti His antibody (Tb-Ab) in 384-well white plate (PerkinElmer) with a final volume of 20 μl. Compounds were incubated with WDR5 protein for 30 min at room temperature. Plates were covered, protected from light and incubated for 60 min at room temperature after adding the peptide and Tb-Ab. EnVision Multimode Plate Reader (PerkinElmer) was used for the TR-FRET assay with excitation wavelength at 340 nm and emission wavelength at 495 and 520 nm. The ratio of the 520/495 wavelengths were used to assess the degree of the FRET signal. IC50 was calculated by fitting the inhibition data using XLfit software to sigmoidal dose-response model.
Biphenyl compound DDO-2084 was reported to be a small molecule inhibitor that can inhibit MLL1-WDR5 protein-protein interaction, reduce MLL1 enzyme catalytic activity, and downregulate the expression of Hox and Meis-1 genes (Eur. J. Med. Chem. 2016, 124, 480-489). DDO-2084 is used as a positive control compound.

[2] = tested on: MV-411 cells; experiment: Anti-proliferative activity against leukemia cells (CellTiterGlo viability, 72 hrs); format: cell-based
Procedure: Procedure: MV-411 or Molm-13 cells were seeded into 384 well plates at 2000 cells/well density in 50 uL according plate map and were allowed to naturally sediment by waiting about 30 min in Clean Bench. Next, plated cells were centrifuged for 1 min at 1000 rpm and the excess cells were transferred into the flasks for further culture. Cells in the assay plates were incubated (at least 4 hrs) at 37° C., 5% CO2 for next process followed by adding the compounds as the plate map indicated. The tests were performed in duplicates with treatment of compounds at 10 pts 3 fold titration in 384 well plates. Taxol was as positive control while DMSO as negative control. To rule out edge effect, the wells on the edge were not seeded and therefore one 384 well plate holds 13 compounds. Cells viability was measured 72 hrs after incubation with compounds and using CellTiterGlo (promega) viability assay according to manufactory's instruction to check the ATP production in each well.
Experiments on anti-proliferative activity against leukemia cells were conducted with some of the compounds of the invention.

[3] = Table 7, read-out: WDR5 TR-FRET Assay (IC50 nM)
[4] = MV4-11, MV-411 human acute monocytic leukemia cell, Table 7
[5] = MV4-11, MV-411 human acute monocytic leukemia cell, Table 6

Compound	IC50 [1, 3] [nM]	GI50 [2, 4] [µM]	GI50 [2, 5] [µM]	also measured
1-(3-(5-amino-2-chloro-4-fluoro-3-methylbenzamido)-4-(4-methylpiperazin-1-yl)phenyl)-N-(2-ethoxyethyl)-1H-1,2,3-triazole-4-carboxamide [HYBI_002]	–	–	–	IC50 ([1]; WDR5 TR-FRET, 5 nM WDR5 protein, 10 nM peptide, read-out: MLL1-WDR5 PPI inhibitory activity): 44.2 nM; GI50 ([2]; MV-411 human acute monocytic leukemia cell, Table 6): 6.31 µM
C[C@H]1CN(c2cc(F)c(-c3ccc(C(=O)N(C)C)cc3)cc2Nc2ncnc(Cl)c2N)CCN1C [DDO-2213_001, (S)-5′-((5-amino-6-chloropyrimidin-4-yl)amino)-4′-(3,4-dimethylpiperazin-1-yl)-2′-fluoro-N,N-dimethyl-[1,1′-biphenyl]-4-carboxamide]	11.1	11.6	–	–
C[C@@H]1CN(c2cc(F)c(-c3ccc(C(=O)N(C)C)cc3)cc2Nc2ncnc(Cl)c2N)C[C@H](C)N1C [DDO-2213_002, 4-[5-[(5-amino-6-chloro-pyrimidin-4-yl)amino]-2-fluoro-4-[(3R,5S)-3,4,5-trimethylpiperazin-1-yl]phenyl]-N,N-dimethyl-benzamide]	55.5	15.6	–	–
CN1CCCN(c2cc(F)c(-c3ccc(C(=O)N(C)C)cc3)cc2Nc2ncnc(Cl)c2N)CC1 [DDO-2213_003, 5′-((5-amino-6-chloropyrimidin-4-yl)amino)-2′-fluoro-N,N-dimethyl-4′-(4-methyl-1,4-diazepan-1-yl)-[1,1′-biphenyl]-4-carboxamide]	395	59.9	–	–
CC(C)NC(=O)c1ccc(-c2cc(Nc3ncnc(Cl)c3N)c(N3C[C@@H](C)N(C)[C@@H](C)C3)cc2F)cc1 [DDO-2213_004, 5′-((5-amino-6-chloropyrimidin-4-yl)amino)-2′-fluoro-N-isopropyl-4′-((3S,5R)-3,4,5-trimethylpiperazin-1-yl)-[1,1′-biphenyl]-4-carboxamide]	68.8	14.8	–	–
C[C@H]1CN(c2cc(F)c(-c3ccc(NC(=O)C4CCCCC4)cc3)cc2Nc2ncnc(Cl)c2N)CCN1C [DDO-2213_005, (S)—N-(5′-((5-amino-6-chloropyrimidin-4-yl)amino)-4′-(3,4-dimethylpiperazin-1-yl)-2′-fluoro-[1,1′-biphenyl]-4-yl)cyclohexanecarboxamide]	11.1	3.37	–	–
C[C@@H]1CN(c2cc(F)c(-c3ccc(NC(=O)C4CCCCC4)cc3)cc2Nc2ncnc(Cl)c2N)C[C@H](C)N1C [DDO-2213_006, N-(5′-((5-amino-6-chloropyrimidin-4-yl)amino)-2′-fluoro-4′-((3S,5R)-3,4,5-trimethylpiperazin-1-yl)-[1,1′-biphenyl]-4-yl)cyclohexanecarboxamide]	38.6	6.09	–	–
CCCC(=O)Nc1ccc(-c2cc(Nc3ncnc(Cl)c3N)c(N3C[C@@H](C)N(C)[C@@H](C)C3)cc2F)cc1 [DDO-2213_007, N-(5′-((5-amino-6-chloropyrimidin-4-yl)amino)-2′-fluoro-4′-((3S,5R)-3,4,5-trimethylpiperazin-1-yl)-[1,1′-biphenyl]-4-yl)butyramide]	51.3	11.5	–	–
C[C@H]1CN(c2cc(F)c(-c3ccnc(OCC4CC4)c3)cc2Nc2ncnc(Cl)c2N)CCN1C [DDO-2213_008, (S)-6-chloro-N4-(5-(2-(cyclopropylmethoxy)pyridin-4-yl)-2-(3,4-dimethylpiperazin-1-yl)-4-fluorophenyl)pyrimidine-4,5-diamine]	8.63	4.76	–	–
C[C@@H]1CN(c2cc(F)c(-c3ccnc(OCC4CC4)c3)cc2Nc2ncnc(Cl)c2N)C[C@H](C)N1C [DDO-2213_009, 6-chloro-N4-(5-(2-(cyclopropylmethoxy)pyridin-4-yl)-4-fluoro-2-((3S,5R)-3,4,5-trimethylpiperazin-1-yl)phenyl)pyrimidine-4,5-diamine]	33.9	1.69	–	–
C[C@@H]1CN(c2cc(F)c(-n3cc(C(=O)N4CCOCC4)nn3)cc2Nc2ncnc(Cl)c2N)C[C@H](C)N1C [DDO-2213_010, (1-(5-((5-amino-6-chloropyrimidin-4-yl)amino)-2-fluoro-4-((3S,5R)-3,4,5-trimethylpiperazin-1-yl)phenyl)-1H-1,2,3-triazol-4-yl)(morpholino)methanone]	250	7.93	–	–
C[C@H]1CN(c2ccc(-c3ccc(C(=O)NCCN4CCOCC4)cc3)c(F)c2Nc2ncnc(Cl)c2N)CCN1C [DDO-2213_012, (S)-3′-((5-amino-6-chloropyrimidin-4-yl)amino)-4′-(3,4-dimethylpiperazin-1-yl)-2′-fluoro-N-(2-morpholinoethyl)-[1,1′-biphenyl]-4-carboxamide]	56.4	104	–	–
C[C@@H]1CN(c2ccc(-c3ccc(NC(=O)C4CCCCC4)cc3)c(F)c2Nc2ncnc(Cl)c2N)C[C@H](C)N1C [DDO-2213_014, N-(3′-((5-amino-6-chloropyrimidin-4-yl)amino)-2′-fluoro-4′-((3S,5R)-3,4,5-trimethylpiperazin-1-yl)-[1,1′-biphenyl]-4-yl)cyclohexanecarboxamide]	186	8.26	–	–
C[C@@H]1CN(c2ccc(-c3ccc(NC(=O)CC4CCCCC4)cc3)c(F)c2Nc2ncnc(Cl)c2N)C[C@H](C)N1C [DDO-2213_015, N-(3′-((5-amino-6-chloropyrimidin-4-yl)amino)-2′-fluoro-4′-((3S,5R)-3,4,5-trimethylpiperazin-1-yl)-[1,1′-biphenyl]-4-yl)-2-cyclohexylacetamide]	85.5	4.14	–	–
C[C@H]1CN(c2cc(F)c(-c3ccc(C(=O)NCC4CCOCC4)cc3)cc2Nc2ncnc(Cl)c2N)CCN1C [DDO-2213_016, (S)-5′-((5-amino-6-chloropyrimidin-4-yl)amino)-4′-(3,4-dimethylpiperazin-1-yl)-2′-fluoro-N-((tetrahydro-2H-pyran-4-yl)methyl)-[1,1′-biphenyl]-4-carboxamide]	12.2	6.31	–	–
C[C@@H]1CN(c2cc(F)c(-c3ccc(CN4CCOCC4)cc3)cc2Nc2ncnc(Cl)c2N)C[C@H](C)N1C [DDO-2213_018, 6-chloro-N4-(6-fluoro-4′-(morpholinomethyl)-4-((3S,5R)-3,4,5-trimethylpiperazin-1-yl)-[1,1′-biphenyl]-3-yl)pyrimidine-4,5-diamine]	110	10.8	–	–
C[C@@H]1CN(c2cc(F)c(-c3cccc(CN4CCOCC4)c3)cc2Nc2ncnc(Cl)c2N)C[C@H](C)N1C [DDO-2213_019, 6-chloro-N4-(6-fluoro-3′-(morpholinomethyl)-4-((3S,5R)-3,4,5-trimethylpiperazin-1-yl)-[1,1′-biphenyl]-3-yl)pyrimidine-4,5-diamine]	215	6.98	–	–
C[C@H]1CN(c2cc(F)c(-c3cnc(N4CCOCC4)nc3)cc2Nc2ncnc(Cl)c2N)CCN1C [DDO-2213_020, (S)-6-chloro-N4-(2-(3,4-dimethylpiperazin-1-yl)-4-fluoro-5-(2-morpholinopyrimidin-5-yl)phenyl)pyrimidine-4,5-diamine]	7.44	5.21	–	–
Cc1c(F)c(N)cc(C(=O)Nc2cc(-n3cc(C(=O)NCCCN4CCOCC4)nn3)ccc2N2CCN(C)C(C)C2)c1Cl (stereo not drawn) [DDO-2306]	–	–	7.11	–
Cc1c(F)c(N)cc(C(=O)Nc2cc(-n3cc(C(=O)NCCCN4CCOCC4)nn3)ccc2N2CCN(C)[C@H](C)C2)c1Cl [DDO-2308]	–	–	9.29	–
Cc1c(F)c(N)cc(C(=O)Nc2cc(-n3cc(C(=O)NCCCN4CCOCC4)nn3)c(F)cc2N2CCN(C)[C@@H](C)C2)c1Cl [DDO-2312]	–	–	24.5	–
Cc1c(F)c(N)cc(C(=O)Nc2cc(-n3cc(C(=O)NCCCN4CCOCC4)nn3)c(F)cc2N2CCN(C)[C@H](C)C2)c1Cl [DDO-2313]	–	–	40.9	–
COc1cc(N2CCN(C)CC2)c(NC(=O)c2cc(N)c(F)c(C)c2Cl)cc1-n1cc(C(=O)NCCCN2CCOCC2)nn1 [DDO-2315]	–	–	24.5	–
COC(=O)c1cn(-c2cc(NC(=O)c3cc(N)c(F)c(C)c3Cl)c(N3CCN(C)CC3)cc2F)nn1 [DDO-2316]	–	–	25.4	–
Cc1c(F)c(N)cc(C(=O)Nc2cc(-n3cc(C(=O)OCC4(C)CCCCC4)nn3)ccc2N2CCN(C)CC2)c1Cl [HYBI_014]	–	–	2.62	–
Cc1cc(C(=O)Nc2cc(-n3cc(C(=O)NCCCN4CCOCC4)nn3)ccc2N2CCN(C)CC2)ccc1F [HYBI_041]	–	–	13.2	–
CN1CCN(c2ccc(-n3cc(C(=O)NCCCN4CCOCC4)nn3)cc2NC(=O)c2ccc(O)cc2C(F)(F)F)CC1 [HYBI_043]	–	–	76	–
